{
  "source": "patent EP0623350A1",
  "about": "“Use of Bradykinin-antagonists for the manufacture of a medicament for the prophylaxis and treatment of arteriosclerosis” (HOECHST AKTIENGESELLSCHAFT, priority 1993, dated 1994)",
  "type_in_all_cases": "in vivo, weißen Kaninchen (New Zealand)",
  "key": {"[1]": {"tested_on": "atherosklerotischen Plaques in der Aorta", "assay": "Atherosclerotic plaques in the aorta of cholesterol-fed rabbits (Oil Red O staining, image analysis)", "text": "(§1) Der Versuch wurde mit weißen Kaninchen (New Zealand) männlichen Geschlechts mit einem Gewicht von 3-4 Kilogramm in Anlehnung an die publizierten Methoden nach A. Kisanuki, Y. Asada, K. Hatakeyama, T. Hayashi und A. Sumiyoshi: Contributions of the Endothelium to Intimal Thickening in Normocholesterolemic and Hypercholesterolemic Rabbits, Arteriosclerosis and Thrombosis (1992), 12; 1198 - 1205 und J. Cooke, A. Singer, P. Tsao, P. Zera, R.Rowan and M. Billingham: Antiatherogenic Effects of L-Arginine in the Hypercholesterolemic Rabbit(1992), 90; 1168 - 1172 durchgeführt. Nach einer Woche unter Standard-Kaninchenfutter (Altromin 2834, Lage-Lippe, Deutschland) wurden zwei Gruppen mit je 15 Kaninchen drei Monate lang mit cholesterinreicher Diät gefüttert. Die Diät enthielt 0.25% Cholesterin und 3% Kokosnußöl. Eine der beiden Gruppen erhielt zusätzlich eine subkutane Dauerinfusion von HOE 140 über implantierte osmotische Minipumpen über den gesamten Zeitraum von drei Monaten. Die Dosis betrug 100 µg/kg/Tag.\n(§2) Eine weitere Gruppe von 15 Kaninchen, die nicht-atherogene normale Diät erhielt, diente als negative Kontrolle. Futter und Wasser wurden ad libitum gegeben. Der Nachweis, daß die gewählte Dosis HOE 140 die Wirkung endogener Kinine hemmen kann, wurde über die Hemmung der blutdrucksenkenden Wirkung von exogenem Bradykinin geführt. Am Ende des Versuches, nach dreimonatiger Behandlung, wurden die Tiere narkotisiert und der basale Blutdruck gemessen. Der basale Blutdruck lag zwischen 100 und 110 mm Hg. Nach der Messung des basalen Blutdrucks wurde Bradykinin intraarteriell als Bolus in einer Dosis von 10 ng injiziert. Bei den Tieren mit normalem Futter führte dies zu einem Blutdruckabfall von 21 mm Hg, bei den Tieren mit atherogener Diät betrug der Blutdruckabfall 24 mm Hg. Bei Kaninchen mit atherogener Diät, die mit HOE 140 behandelt wurden, fiel der Blutdruck nur noch um 3.7 mm Hg, was eine effektive Hemmung der Bradykininwirkung durch HOE 140 anzeigte.\n(§3) Danach wurden die Kaninchen mit einer hohen Dosis von Pentobarbital (40 mg/kg) getötet und eine komplette Autopsie durchgeführt. Die atherosklerotischen Plaques wurden durch Öl-Rot O ([…]) sichtbar gemacht, ihr Ausmaß mittels eines Bildanalysators quantifiziert und die prozentuale Plaquegröße in der Aorta bestimmt. Weiterhin wurden die Cholesterinfraktionen (HDL, LDL und VLDL) im Serum mit Hilfe der Ultrazentrifugation bestimmt."}, "[2]": {"tested_on": "Serum Lipoprotein Fraktionen", "assay": "Serum cholesterol/lipoprotein fractions (HDL, LDL, VLDL) by ultracentrifugation in cholesterol-fed rabbits", "text": "as §1, §3"}, "[3]": {"tested_on": "blutdrucksenkenden Wirkung von exogenem Bradykinin", "assay": "Inhibition of the blood-pressure-lowering effect of exogenous bradykinin in anaesthetised rabbits", "conditions": "Bradykinin 10 ng intra-arterial bolus; anaesthetised rabbits on atherogenic diet after 3 months HOE 140 100 µg/kg/Tag s.c.; untreated controls 21 and 24 mm Hg", "text": "as §2"}, "[4]": {"conditions": "atherogenic diet 3 months plus HOE 140 100 µg/kg/Tag s.c. continuous infusion, mean ± S.E.M."}},
  "data": [
    {"smiles": "N=C(N)NCCC[C@@H](N)C(=O)N[C@@H](CCCNC(=N)N)C(=O)N1CCC[C@H]1C(=O)N1C[C@H](O)C[C@H]1C(=O)NCC(=O)N[C@@H](Cc1cccs1)C(=O)N[C@@H](CO)C(=O)N1Cc2ccccc2C[C@@H]1C(=O)N1[C@H](C(=O)N[C@@H](CCCNC(=N)N)C(=O)O)C[C@@H]2CCCC[C@@H]21", "note": "[HOE 140]", "values": [
      {"measurement": "Plaques in der Aorta: Fläche in Prozent der Intimafläche, Thorakale Aorta", "setting": "[1]; [4]", "result": "1.6 ± 1.1", "unit": "Prozent der Intimafläche"},
      {"measurement": "Plaques in der Aorta: Fläche in Prozent der Intimafläche, Aortenbogen", "setting": "[1]; atherogenic diet (0.25% Cholesterin, 3% Kokosnußöl) 3 months plus HOE 140 100 µg/kg/Tag s.c. continuous infusion, mean ± S.E.M.", "result": "23.4 ± 5.4", "unit": "Prozent der Intimafläche"},
      {"measurement": "Plaques in der Aorta: Fläche in Prozent der Intimafläche, Abdominelle Aorta 1", "setting": "[1]; first section of abdominal aorta, atherogenic diet 3 months plus HOE 140 100 µg/kg/Tag s.c. continuous infusion, mean ± S.E.M.", "result": "1.4 ± 0.6", "unit": "Prozent der Intimafläche"},
      {"measurement": "Arteriosklerotische Veränderungen der Gefäßwände", "setting": "[1]; result in words, cholesterol-fed rabbits treated with HOE 140", "result": "stark reduziert"},
      {"measurement": "Atherosklerotische Veränderungen des Aortenbogens und der Aortenabschnitte in Brust und Bauch", "setting": "[1]; result in words, versus atherogenic diet alone", "result": "bei weitem geringer"},
      {"measurement": "Plaques in der Aorta: Fläche in Prozent der Intimafläche, Abdominelle Aorta 2", "setting": "[1]; second section of abdominal aorta, atherogenic diet 3 months plus HOE 140 100 µg/kg/Tag s.c. continuous infusion, mean ± S.E.M.", "result": "7.0 ± 1.5", "unit": "Prozent der Intimafläche"},
      {"measurement": "Serum Lipoprotein Fraktionen, HDL", "setting": "[2]; [4]", "result": "4981 ± 576", "unit": "µg/mL"},
      {"measurement": "Serum Lipoprotein Fraktionen, LDL", "setting": "[2]; [4]", "result": "168 ± 21", "unit": "µg/mL"},
      {"measurement": "Serum Lipoprotein Fraktionen, VLDL", "setting": "[2]; [4]", "result": "250 ± 12", "unit": "µg/mL"},
      {"measurement": "HDL-Werte", "setting": "[2]; result in words, HDL raised by cholesterol-rich diet", "result": "keinen Einfluß"},
      {"measurement": "LDL und VLDL (Serumlipide)", "setting": "[2]; result in words, versus atherogenic diet alone, hardly distinguishable from normal-diet controls", "result": "stark erniedrigt"},
      {"measurement": "Blutdruckabfall nach Bradykinin", "setting": "[3]", "result": 3.7, "unit": "mm Hg"}
    ]}
  ]
}
